Assay results: patent publication US11311522B1 (Cavion, Inc., priority 2018, dated 2022)
Where two headings read alike, the source gives them in different places.

Columns and labels:
[1] = In vitro plasma protein binding, human; format: in vitro ADME
[2] = biological target: T1, breast cancer resistance protein (BCRP) (Homo sapiens, UniProt Q9UNQ0); test: BCRP transport; format: in vitro ADME; details: up to 30 μM
T1 sequence (Q9UNQ0 1-655): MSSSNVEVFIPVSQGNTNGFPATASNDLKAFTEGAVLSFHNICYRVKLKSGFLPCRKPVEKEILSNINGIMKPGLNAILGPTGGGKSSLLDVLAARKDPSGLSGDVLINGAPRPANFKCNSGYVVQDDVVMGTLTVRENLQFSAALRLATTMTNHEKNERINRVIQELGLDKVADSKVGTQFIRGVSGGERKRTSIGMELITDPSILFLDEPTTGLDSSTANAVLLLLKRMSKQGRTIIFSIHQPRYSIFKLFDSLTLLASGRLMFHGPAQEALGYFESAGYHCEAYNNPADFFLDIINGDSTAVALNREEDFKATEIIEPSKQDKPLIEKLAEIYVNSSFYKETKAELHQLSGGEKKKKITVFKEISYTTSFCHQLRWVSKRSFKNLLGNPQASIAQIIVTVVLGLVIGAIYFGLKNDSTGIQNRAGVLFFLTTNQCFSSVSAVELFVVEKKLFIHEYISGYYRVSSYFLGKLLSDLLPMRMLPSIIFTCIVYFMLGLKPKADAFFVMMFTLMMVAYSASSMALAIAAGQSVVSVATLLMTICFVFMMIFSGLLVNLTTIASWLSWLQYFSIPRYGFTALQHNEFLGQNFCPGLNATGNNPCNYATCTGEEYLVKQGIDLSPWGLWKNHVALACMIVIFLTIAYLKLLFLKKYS
Excerpt: (§1) Glucuronide conjugates of the oxygenated metabolites are detected in human, monkey, and dog hepatocyte preparations. […] However, the abundance of CYP3A5, CYP2C19, and CYP2D6 in human liver microsomes is low (2%-5%) relative to the primary contributors, CYP3A4 (˜30%) and CYP2C9 (˜20%). […] Information on reproductive and developmental toxicology was obtained in a 28-day pivotal female fertility study in rats and in preliminary embryo-fetal development studies in rats and rabbits.

Cav3.3 = biological target: T2, Cav3.3 (Homo sapiens, UniProt Q9P0X4); test: Cav3.3 FLIPR calcium influx assay (HEK 293 cells); format: cell-based; details: for IC50: Cav3.3 FLIPR assay
T2 construct: expressed in transfected cells; host or cells: HEK 293
T2 sequence (Q9P0X4 whole entry, species assumed): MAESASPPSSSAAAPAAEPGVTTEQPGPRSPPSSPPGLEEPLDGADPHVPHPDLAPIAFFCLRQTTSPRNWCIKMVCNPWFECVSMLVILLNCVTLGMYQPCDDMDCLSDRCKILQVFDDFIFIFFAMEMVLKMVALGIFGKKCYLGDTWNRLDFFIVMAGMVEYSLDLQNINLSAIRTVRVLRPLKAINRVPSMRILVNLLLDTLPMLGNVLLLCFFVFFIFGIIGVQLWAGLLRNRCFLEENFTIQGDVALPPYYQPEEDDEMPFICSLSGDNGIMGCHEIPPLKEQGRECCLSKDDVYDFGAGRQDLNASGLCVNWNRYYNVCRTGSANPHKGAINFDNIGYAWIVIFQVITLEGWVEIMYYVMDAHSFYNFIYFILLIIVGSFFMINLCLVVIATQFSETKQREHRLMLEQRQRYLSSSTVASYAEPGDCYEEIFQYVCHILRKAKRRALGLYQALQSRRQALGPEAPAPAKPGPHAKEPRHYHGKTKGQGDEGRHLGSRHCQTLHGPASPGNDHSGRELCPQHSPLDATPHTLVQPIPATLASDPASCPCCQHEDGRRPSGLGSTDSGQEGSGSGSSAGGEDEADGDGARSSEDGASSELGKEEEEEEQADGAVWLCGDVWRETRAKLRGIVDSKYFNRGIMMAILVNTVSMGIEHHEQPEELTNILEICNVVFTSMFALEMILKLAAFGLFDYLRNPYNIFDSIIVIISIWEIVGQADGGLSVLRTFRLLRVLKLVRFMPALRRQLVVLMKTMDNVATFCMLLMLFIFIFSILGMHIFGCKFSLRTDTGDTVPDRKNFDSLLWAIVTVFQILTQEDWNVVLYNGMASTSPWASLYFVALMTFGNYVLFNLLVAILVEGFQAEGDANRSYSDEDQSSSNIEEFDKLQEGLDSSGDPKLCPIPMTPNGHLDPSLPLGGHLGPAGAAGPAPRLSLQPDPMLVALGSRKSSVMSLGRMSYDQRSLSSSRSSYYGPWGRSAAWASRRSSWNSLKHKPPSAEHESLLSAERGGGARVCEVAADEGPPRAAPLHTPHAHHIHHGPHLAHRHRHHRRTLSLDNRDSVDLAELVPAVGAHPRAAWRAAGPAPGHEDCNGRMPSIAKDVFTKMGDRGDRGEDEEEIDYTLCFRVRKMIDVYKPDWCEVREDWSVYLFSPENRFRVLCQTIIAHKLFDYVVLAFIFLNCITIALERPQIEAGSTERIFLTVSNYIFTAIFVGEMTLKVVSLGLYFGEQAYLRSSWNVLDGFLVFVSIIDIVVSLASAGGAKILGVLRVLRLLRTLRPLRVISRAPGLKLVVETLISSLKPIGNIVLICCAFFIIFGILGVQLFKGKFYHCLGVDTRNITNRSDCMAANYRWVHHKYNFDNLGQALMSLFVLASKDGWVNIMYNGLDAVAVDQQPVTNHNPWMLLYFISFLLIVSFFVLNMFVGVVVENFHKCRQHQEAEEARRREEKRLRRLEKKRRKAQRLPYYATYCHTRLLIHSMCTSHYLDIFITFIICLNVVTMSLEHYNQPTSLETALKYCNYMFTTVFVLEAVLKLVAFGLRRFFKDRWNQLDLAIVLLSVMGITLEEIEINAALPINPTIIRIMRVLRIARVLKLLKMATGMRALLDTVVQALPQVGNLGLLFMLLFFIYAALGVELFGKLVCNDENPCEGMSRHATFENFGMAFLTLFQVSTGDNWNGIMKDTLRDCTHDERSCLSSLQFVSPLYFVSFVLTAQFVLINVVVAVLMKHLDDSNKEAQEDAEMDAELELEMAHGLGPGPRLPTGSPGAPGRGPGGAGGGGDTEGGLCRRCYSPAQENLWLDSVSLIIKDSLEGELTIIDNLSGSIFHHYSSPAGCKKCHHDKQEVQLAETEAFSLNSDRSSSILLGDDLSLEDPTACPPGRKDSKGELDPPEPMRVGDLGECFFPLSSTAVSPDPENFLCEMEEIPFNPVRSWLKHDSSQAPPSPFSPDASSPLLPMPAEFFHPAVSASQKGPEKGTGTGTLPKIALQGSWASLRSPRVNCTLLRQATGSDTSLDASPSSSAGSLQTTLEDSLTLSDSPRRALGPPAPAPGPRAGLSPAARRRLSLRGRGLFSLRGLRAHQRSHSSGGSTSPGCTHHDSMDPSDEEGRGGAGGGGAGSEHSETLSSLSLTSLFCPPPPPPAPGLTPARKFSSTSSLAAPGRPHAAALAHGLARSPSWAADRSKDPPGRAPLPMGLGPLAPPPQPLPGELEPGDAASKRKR

[3] = for Day 90 Free Margin for AUC24 at NOAEL for Dog 90-Day Toxicology / Day 90 Free Plasma AUC24 at NOAEL for Dog 90-Day Toxicology: Beagle; for Day 90 Free Plasma AUC24 at NOAEL for Dog 90-Day Toxicology: 30 mg/kg/day; for Day 90 Free Plasma AUC24 at NOAEL for Rat 90-Day Toxicology: 300 mg/kg/day
[4] = In vitro plasma protein binding, monkey; format: in vitro ADME
Excerpt: CX-8998 distributes readily to the brain in rats and to brain and cerebral spinal fluid (CSF) in dogs.

[5] = Pharmacokinetics in rhesus monkeys; format: in vivo, rhesus monkey; details: male, rhesus monkey, plasma, po, 2 mg/kg; read-out: AUC24
Procedure: (§2) The validity and reproducibility of the assays were determined, and the precision and accuracy for calibration standards and quality control samples were examined. […] The analytes were stable in plasma under the storage and assay conditions. […] Assay performances were satisfactory and met acceptance criteria for system performance suitability, quantitation range, calibration linearity, assay accuracy and precision, and assay recovery.

[6] = Phase 1 single-dose pharmacokinetics (PN001, PN002/Part I, PN003, PN005); format: in vivo, human; details: 8 mg CX-8998
[7] = Simulated Css and total active moiety, 10 mg BID; parameters: species or system human; details: for Css, estimated mean / Steady-state AUC24, estimated mean: M02, CX-8998 10 mg twice daily fasted
clinical = details: human, plasma, oral, 8 mg
Excerpt: Subjects will be screened for study eligibility within 28 days before administration of the first dose of study drug. Subjects who meet the study eligibility criteria will be admitted to the clinical research unit in the afternoon of the day before administration of the first dose of study drug (Period 1/Day −1).
Treatments A, B, and C will be separated by a minimum 7-day washout period. […] Administration of Treatment D may be separated from administration of Treatments A, B, and C by approximately 4 weeks to allow for analysis of the bioanalytical samples from the first 3 treatments.

Pharmacokinetics in dogs = format: in vivo, dog; details: male, dog, plasma, po, 0.5 mg/kg; read-out: AUC24
Procedure: as §2

[8] = 4-week oral toxicology in Beagle dogs; details: dog, in vivo
[9] = Crossover bioavailability study IR vs MR1 vs MR2 capsules: PK; parameters: AUC72hr: unit not given beside the values; details: plasma
in vivo = details: rat, po
P-glycoprotein = P-glycoprotein bidirectional transport; format: in vitro ADME, human, monkey, and rat
Excerpt: as §1

[10] = test system: CYP1A2, CYP3A4, CYP2C8, CYP2C9, CYP2C19, CYP2D6, CYP2B6; test: CYP inhibition in human liver microsomes; format: in vitro ADME
Pharmacokinetics in rats = format: in vivo, rat; details: rat, plasma, po, 10 mg/kg, read-out: AUC24
Procedure: as §2

[11] = simulated from CX-8998 10 mg BID
[12] = following a single 8 mg dose of MR1 CX-8998
[13] = following a single 8 mg dose of MR2 CX-8998

SMILES: C[C@@H](NC(=O)Cc1ccc(C(C)(C)O)cc1)c1ccc(OCC(F)(F)F)cn1 [M02]
- fraction unbound ([1]; human plasma, read-out: In vitro plasma protein binding (converted)): 0.14
- fraction unbound ([1]; humans, read-out: free fraction): 0.14
- Inhibition of BCRP-mediated transport [2]: did not inhibit
- IC50 (Cav3.3; depolarized, read-out: Depolarized FLIPR potency): 0.017 µM
- IC50 (Cav3.3; hyperpolarized, read-out: Hyperpolarized FLIPR potency): 2.84 µM
- State dependence (Cav3.3; hyperpolarized versus depolarized FLIPR potency): 166 fold
- Day 90 Free Margin for AUC24 at NOAEL for Rat 90-Day Toxicology ([3]; Female rats vs human 10 mg BID): 129
- Day 90 Free Margin for Cmax at NOAEL for Rat 90-Day Toxicology ([3]; Male rats vs human 10 mg BID (fed)): 117
- Day 90 Free Margin for AUC24 at NOAEL for Dog 90-Day Toxicology ([3]; female): 33
- Day 90 Free Plasma AUC24 at NOAEL for Dog 90-Day Toxicology ([3]; female): 37,620 nM · hr
- Day 90 Free Plasma AUC24 at NOAEL for Rat 90-Day Toxicology ([3]; female, rat): 148,190 nM · hr
- Day 90 Free Margin for AUC24 at NOAEL for Dog 90-Day Toxicology ([3]; male): 33
- Day 90 Free Plasma AUC24 at NOAEL for Dog 90-Day Toxicology ([3]; male): 38,340 nM · hr
- Day 90 Free Margin for AUC24 at NOAEL for Rat 90-Day Toxicology ([3]; male, rat): 65
- Day 90 Free Plasma AUC24 at NOAEL for Rat 90-Day Toxicology ([3]; male, rat): 74,820 nM · hr
- fraction unbound [4]: 0.17
- AUC [5]: 36.6 µM·h
- AUCinf, middle-aged and elderly female vs male subjects [6]: 11% lower
- Cmax, middle-aged and elderly female vs male subjects [6]: 2% higher
- Css, estimated mean ([7]; middle-aged and elderly men): 683 nM
- Steady-state AUC24, estimated mean ([7]; middle-aged and elderly men): 15.312 µM·h
- Css, estimated mean ([7]; middle-aged and elderly women): 566 nM
- Steady-state AUC24, estimated mean ([7]; middle-aged and elderly women): 13.584 µM·h
- Css, estimated mean ([7]; young men): 343 nM
- Steady-state AUC24, estimated mean ([7]; young men): 8.232 µM·h
- Cu, ss_adj ([7]; adjusted for fu and potency, 10 mg BID): 10.1 nM
- Cp, ss [7, 11]: 343 nM
- Cu, ss [7, 11]: 48 nM
- AUC(0-t) (clinical): 3.67 µM·h
- Cmax (clinical): 122 nM
- AUC (Pharmacokinetics in dogs): 7.8 µM·h
- Safety margin (AUC24) at the NOEL over expected clinical exposure [8]: ~23 fold
- Tmax ([9]; following a single 8 mg dose of IR CX-8998): 5 h
- AUC72hr [9, 12]: 3343
- Cmax [9, 12]: 94 nM
- Tmax [9, 12]: 11 h
- AUC72hr [9, 13]: 3142
- Cmax [9, 13]: 73 nM
- Tmax [9, 13]: 16 h
- AUC (in vivo; female, 5 mg/kg): 16.7 µM·h
- AUC (in vivo; female, 15 mg/kg): 54.8 µM·h
- AUC (in vivo; female, 100 mg/kg): 567 µM·h
- AUC (in vivo; female, 300 mg/kg): 511 µM·h
- AUC (in vivo; male, 5 mg/kg): 12 µM·h
- AUC (in vivo; male, 15 mg/kg): 26.1 µM·h
- AUC (in vivo; male, 100 mg/kg): 186 µM·h
- AUC (in vivo; male, 300 mg/kg): 258 µM·h
- P-glycoprotein substrate or inhibitor activity (P-glycoprotein): showed increased efflux in the rat and monkey assays
- Time-dependent inhibition of CYP3A4 or CYP2B6 [10]: insignificant
- AUC (Pharmacokinetics in rats; female): 31 µM·h
- AUC (Pharmacokinetics in rats; male): 10 µM·h
